Test results as given in patent publication US20200187502A1, “MICROBIOCIDAL OXADIAZOLE DERIVATIVES” (SYNGENTA PARTICIPATIONS AG, priority 2017, published 2020).

Experiments:
[1] = system: Glomerella lacenarium (Colletotrichum lacenarium); experiment: Fungicidal activity, liquid culture, cucumber preventative (anthracnose); format: cell-based; settings: 20 ppm in the applied formulation, liquid culture in PDB, inhibition of growth measured photometrically 3 to 4 days after application, compared to untreated control, read-out: disease control
Method: Mycelia fragments or conidia suspensions of a fungus prepared either freshly from liquid cultures of the fungus or from cryogenic storage, are directly mixed into nutrient broth. DMSO solutions of the test compound (max. 10 mg/ml) are diluted with 0.025% Tween20 by a factor of 50 and 10 μl of this solution is pipetted into a microtiter plate (96-well format). The nutrient broth containing the fungal spores/mycelia fragments is then added to give an end concentration of the tested compound. The test plates are incubated in the dark at 24° C. and 96% relative humidity. The inhibition of fungal growth is determined photometrically after 2 to 7 days, depending on the pathosystem, and percent antifungal activity relative to the untreated check is calculated.
Conidia of the fungus from cryogenic storage are directly mixed into nutrient broth (PDB—potato dextrose broth). After placing a (DMSO) solution of test compound into a microtiter plate (96-well format), the nutrient broth containing the fungal spores is added. The test plates are incubated at 24° C. and the inhibition of growth is measured photometrically 3 to 4 days after application.
The following compounds at 20 ppm in the applied formulation give at least 80% disease control in this test when compared to untreated control under the same conditions, which show extensive disease development.

[2] = system: Puccinia recondita f. Sp. Tritici; experiment: Fungicidal activity, wheat leaf disc preventative (brown rust); format: in vivo; settings: foliar, 200 ppm in the applied formulation, wheat leaf segments cv. Kanzler, compared to untreated control, 7 to 9 days after application, read-out: disease control
Method: Leaf disks or leaf segments of various plant species are cut from plants grown in a greenhouse. The cut leaf disks or segments are placed in multiwell plates (24-well format) onto water agar. The leaf disks are sprayed with a test solution before (preventative) or after (curative) inoculation. Compounds to be tested are prepared as DMSO solutions (max. 10 mg/ml) which are diluted to the appropriate concentration with 0.025% Tween20 just before spraying. The inoculated leaf disks or segments are incubated under defined conditions (temperature, relative humidity, light, etc.) according to the respective test system. A single evaluation of disease level is carried out 3 to 14 days after inoculation, depending on the pathosystem. Percent disease control relative to the untreated check leaf disks or segments is then calculated.
Wheat leaf segments cv. Kanzler were placed on agar in multiwell plates (24-well format) and sprayed with the formulated test compound diluted in water. The leaf disks were inoculated with a spore suspension of the fungus 1 day after application. The inoculated leaf segments were incubated at 19° C. and 75% relative humidity (rh) under a light regime of 12 hours light/12 hours darkness in a climate cabinet and the activity of a compound was assessed as percent disease control compared to untreated when an appropriate level of disease damage appears in untreated check leaf segments (7 to 9 days after application).
The following compounds at 200 ppm in the applied formulation give at least 80% disease control in this test when compared to untreated control leaf disks under the same conditions, which show extensive disease development.

Row | Structure (SMILES) | inhibition of growth at 20 ppm [1] [%] | pest or weed control at 200 ppm [2] [%]
1 | CON(Cc1ccc(-c2noc(C(F)(F)F)n2)s1)C(=O)n1ccnc1 [Compound 1.3, N-methoxy-N-[[5-[5-(trifluoromethyl)-1,2,4-oxadiazol-3-yl]-2-thienyl]methyl]imidazole-1-carboxamide] | ≥ 80 | 
2 | COC(=O)N(Cc1ccc(-c2noc(C(F)(F)F)n2)s1)OC [Compound 1.5, methyl N-methoxy-N-[[5-[5-(trifluoromethyl)-1,2,4-oxadiazol-3-yl]-2-thienyl]methyl]carbamate] | ≥ 80 | ≥ 80
3 | CON(Cc1ccc(-c2noc(C(F)(F)F)n2)s1)C(=O)c1ccccc1Cl [Compound 1.20, 2-chloro-N-methoxy-N-[[5-[5-(trifluoromethyl)-1,2,4-oxadiazol-3-yl]-2-thienyl]methyl]benzamide] | ≥ 80 | ≥ 80
4 | CON(Cc1ccc(-c2noc(C(F)(F)F)n2)s1)S(C)(=O)=O [Compound 1.31, N-methoxy-N-[[5-[5-(trifluoromethyl)-1,2,4-oxadiazol-3-yl]-2-thienyl]methyl]methanesulfonamide] | ≥ 80 | 
5 | CON(Cc1ccc(-c2noc(C(F)(F)F)n2)s1)S(=O)(=O)N1CCCC1 [Compound 1.36, N-methoxy-N-[[5-[5-(trifluoromethyl)-1,2,4-oxadiazol-3-yl]-2-thienyl]methyl]pyrrolidine-1-sulfonamide] | ≥ 80 | 
6 | C=CCS(=O)(=O)N(Cc1ccc(-c2noc(C(F)(F)F)n2)s1)OC [Compound 1.38, N-methoxy-N-[[5-[5-(trifluoromethyl)-1,2,4-oxadiazol-3-yl]-2-thienyl]methyl]prop-2-ene-1-sulfonamide] | ≥ 80 | 
7 | COC(=O)CCS(=O)(=O)N(Cc1ccc(-c2noc(C(F)(F)F)n2)s1)OC [Compound 1.39, methyl 3-[methoxy-[[5-[5-(trifluoromethyl)-1,2,4-oxadiazol-3-yl]-2-thienyl]methyl]sulfamoyl]propanoate] | ≥ 80 | 
8 | COCCS(=O)(=O)N(Cc1ccc(-c2noc(C(F)(F)F)n2)s1)OC [Compound 1.40, N,2-dimethoxy-N-[[5-[5-(trifluoromethyl)-1,2,4-oxadiazol-3-yl]-2-thienyl]methyl]ethanesulfonamide] | ≥ 80 | 
9 | CCOC(=O)N(Cc1ccc(-c2noc(C(F)(F)F)n2)s1)C(C)C [Compound 4.12, ethyl N-isopropyl-N-[[5-[5-(trifluoromethyl)-1,2,4-oxadiazol-3-yl]-2-thienyl]methyl]carbamate] | ≥ 80 | 
10 | CC(C)C(=O)N(Cc1ccc(-c2noc(C(F)(F)F)n2)s1)OCC(F)F [Compound 4.20, N-(2,2-difluoroethoxy)-2-methyl-N-[[5-[5-(trifluoromethyl)-1,2,4-oxadiazol-3-yl]-2-thienyl]methyl]propanamide] | ≥ 80 | 
11 | COC(C)C(=O)N(Cc1ccc(-c2noc(C(F)(F)F)n2)s1)OCC(F)F (stereo not drawn) [Compound 4.21, N-(2,2-difluoroethoxy)-2-methoxy-N-[[5-[5-(trifluoromethyl)-1,2,4-oxadiazol-3-yl]-2-thienyl]methyl]propanamide] | ≥ 80 | 
12 | CCN(Cc1ccc(-c2noc(C(F)(F)F)n2)s1)C(=O)c1ccccc1Cl [Compound 5.8, 2-chloro-N-ethyl-N-[[5-[5-(trifluoromethyl)-1,2,4-oxadiazol-3-yl]-2-thienyl]methyl]benzamide] | ≥ 80 | 
13 | CC(C)N(Cc1ccc(-c2noc(C(F)(F)F)n2)s1)C(=O)CC1CC1 [Compound 5.27, 2-cyclopropyl-N-isopropyl-N-[[5-[5-(trifluoromethyl)-1,2,4-oxadiazol-3-yl]-2-thienyl]methyl]acetamide] | ≥ 80 | 
14 | CC(C)N(Cc1ccc(-c2noc(C(F)(F)F)n2)s1)C(=O)C1(C)CC1 [Compound 5.30, N-isopropyl-1-methyl-N-[[5-[5-(trifluoromethyl)-1,2,4-oxadiazol-3-yl]-2-thienyl]methyl]cyclopropanecarboxamide] | ≥ 80 | 
15 | CC1CC1C(=O)N(Cc1ccc(-c2noc(C(F)(F)F)n2)s1)C(C)C (stereo not drawn) [Compound 5.34, N-isopropyl-2-methyl-N-[[5-[5-(trifluoromethyl)-1,2,4-oxadiazol-3-yl]-2-thienyl]methyl]cyclopropanecarboxamide] | ≥ 80 | 
16 | O=C(c1ccccc1Cl)N(Cc1ccc(-c2noc(C(F)(F)F)n2)s1)C1CC1 [Compound 5.35, 2-chloro-N-cyclopropyl-N-[[5-[5-(trifluoromethyl)-1,2,4-oxadiazol-3-yl]-2-thienyl]methyl]benzamide] | ≥ 80 | 
17 | O=C(c1ccccc1Cl)N(Cc1ccc(-c2noc(C(F)(F)F)n2)s1)OCC(F)F [Compound 5.44, 2-chloro-N-(2,2-difluoroethoxy)-N-[[5-(5-(trifluoromethyl)-1,2,4-oxadiazol-3-yl]-2-thienyl]methyl]benzamide] | ≥ 80 | 
18 | CC1(C(=O)N(Cc2ccc(-c3noc(C(F)(F)F)n3)s2)OCC(F)F)CC1 [Compound 5.48, N-(2,2-difluoroethoxy)-1-methyl-N-[[5-[5-(trifluoromethyl)-1,2,4-oxadiazol-3-yl]-2-thienyl]methyl]cyclopropanecarboxamide] | ≥ 80 | 
19 | CC(C)N(Cc1ccc(-c2noc(C(F)(F)F)n2)s1)C(=O)N1CCCO1 [Compound 5.58, N-isopropyl-N-[[5-[5-(trifluoromethyl)-1,2,4-oxadiazol-3-yl]-2-thienyl]methyl]isoxazolidine-2-carboxamide] | ≥ 80 | 
20 | CC(C)N(Cc1ccc(-c2noc(C(F)(F)F)n2)s1)S(=O)(=O)N(C)C [Compound 6.4, N-(dimethylsulfamoyl)-N-[[5-[5-(trifluoromethyl)-1,2,4-oxadiazol-3-yl]-2-thienyl]methyl]propan-2-amine] | ≥ 80 | 
21 | CCN(Cc1ccc(-c2noc(C(F)(F)F)n2)s1)S(=O)(=O)c1ccccc1 [Compound 6.15, N-ethyl-N-[[5-[5-(trifluoromethyl)-1,2,4-oxadiazol-3-yl]-2-thienyl]methyl]benzenesulfonamide] | ≥ 80 | 
22 | CC(C)S(=O)(=O)N(C)Cc1ccc(-c2noc(C(F)(F)F)n2)s1 [Compound 6.23, N-methyl-N-[[5-[5-(trifluoromethyl)-1,2,4-oxadiazol-3-yl]-2-thienyl]methyl]propane-2-sulfonamide] | ≥ 80 | 
23 | CCCCS(=O)(=O)N(C)Cc1ccc(-c2noc(C(F)(F)F)n2)s1 [Compound 6.24, N-methyl-N-[[5-[5-(trifluoromethyl)-1,2,4-oxadiazol-3-yl]-2-thienyl]methyl]butane-1-sulfonamide] |  | ≥ 80
24 | CN(Cc1ccc(-c2noc(C(F)(F)F)n2)s1)S(=O)(=O)c1ccccc1 [Compound 6.26, N-methyl-N-[[5-[5-(trifluoromethyl)-1,2,4-oxadiazol-3-yl]-2-thienyl]methyl]benzenesulfonamide] |  | ≥ 80
25 | CCCCS(=O)(=O)N(Cc1ccc(-c2noc(C(F)(F)F)n2)s1)C1CC1 [Compound 6.34, N-cyclopropyl-N-[[5-[5-(trifluoromethyl)-1,2,4-oxadiazol-3-yl]-2-thienyl]methyl]butane-1-sulfonamide] | ≥ 80 | 
26 | O=S(=O)(c1ccccc1)N(Cc1ccc(-c2noc(C(F)(F)F)n2)s1)C1CC1 [Compound 6.36, N-cyclopropyl-N-[[5-[5-(trifluoromethyl)-1,2,4-oxadiazol-3-yl]-2-thienyl]methyl]benzenesulfonamide] |  | ≥ 80
27 | CCN(Cc1ccc(-c2noc(C(F)(F)F)n2)s1)C(=O)C(=O)C(C)(C)C [Compound 6.41, N-ethyl-3,3-dimethyl-2-oxo-N-[[5-[5-(trifluoromethyl)-1,2,4-oxadiazol-3-yl]-2-thienyl]methyl]butanamide] | ≥ 80 | 
28 | CN(C)C(=O)C(=O)N(Cc1ccc(-c2noc(C(F)(F)F)n2)s1)OCC(F)F [Compound 6.65, N′-(2,2-difluoroethoxy)-N,N-dimethyl-N′-[[5-[5-(trifluoromethyl)-1,2,4-oxadiazol-3-yl]-2-thienyl]methyl]oxamide] | ≥ 80 | 
